Reference: patent US20110028566A1, “COMPOSITIONS AND PRODUCTS CONTAINING CYCLOALIPHATIC DIOL ANTIMICROBIAL AGENTS AND METHODS OF USING THE COMPOSITIONS AND PRODUCTS” (EASTMAN CHEMICAL COMPANY, priority 2009, published 2011)

Legend:
Assay in all cases: Microbial challenge testing in BPW
Format in all cases: cell-based
Settings in all cases: BPW, w/v % in label, average of replicates
Burkholderia cepacia = tested on: Burkholderia cepacia
Outline: (§1)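 Test materials, dosed as w/v % in BPW pH 7.0 with 1% dextrose, were challenged with bacteria at 10^5–10^6 cfu/mL starting count. Inocula came from 96 h or longer TSB-dextrose cultures, and counts were checked by PCA spread-plating. Samples were incubated 14 days at 35 °C, then at ambient temperature.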

[1] = tested on: Staphylococcus epidermidis
Outline: as §1

Bacillus subtilis = tested on: Bacillus subtilis
Outline: as §1

Aeromonas sp. = tested on: Aeromonas sp.
Outline: as §1

Pseudomonas aeruginosa = tested on: Pseudomonas aeruginosa
Outline: as §1

Streptococcus mutans = tested on: Streptococcus mutans
Outline: as §1

Staphylococcus aureus = tested on: Staphylococcus aureus
Outline: as §1

Escherichia coli = tested on: Escherichia coli
Outline: as §1

Proteus vulgaris = tested on: Proteus vulgaris
Outline: as §1

Structure (SMILES): O=C([O-])CN(CCN(CC(=O)O)CC(=O)O)CC(=O)[O-].[Na+].[Na+] [EDTA, ethylenediaminetetraacetic acid disodium salt]
- Grade code, B. cepacia, 3 Days (Burkholderia cepacia; 3 days incubation): 4 (1001 to 10,000 colonies (thus 10,000 cfu/mL to 100,000 cfu/mL))
- Grade code, B. cepacia, 14 Days (Burkholderia cepacia; 14 days incubation): 4 (1001 to 10,000 colonies (thus 10,000 cfu/mL to 100,000 cfu/mL))
- Grade code, B. cepacia, 30 Days (Burkholderia cepacia; 30 days incubation): 4 (1001 to 10,000 colonies (thus 10,000 cfu/mL to 100,000 cfu/mL))
- Grade code, S. epidermidis, 3 Days ([1]; 3 days incubation): 4 (1001 to 10,000 colonies (thus 10,000 cfu/mL to 100,000 cfu/mL))
- Grade code, S. epidermidis, 13 Days ([1]; 13 days incubation): 3 (101 to 1000 colonies (thus 1000 to 10,000 cfu/mL))
- Grade code, S. epidermidis, 30 Days ([1]; 30 days incubation): 4 (1001 to 10,000 colonies (thus 10,000 cfu/mL to 100,000 cfu/mL))
- Grade code, B. subtilis, 3 Day (Bacillus subtilis; 3 days incubation): 4 (1001 to 10,000 colonies (thus 10,000 cfu/mL to 100,000 cfu/mL))
- Grade code, B. subtilis, 14 Day (Bacillus subtilis; 14 days incubation): 4 (1001 to 10,000 colonies (thus 10,000 cfu/mL to 100,000 cfu/mL))
- Grade code, B. subtilis, 30 Days (Bacillus subtilis; 30 days incubation): 4 (1001 to 10,000 colonies (thus 10,000 cfu/mL to 100,000 cfu/mL))
- Grade code, Aeromonas sp, 3 Days (Aeromonas sp.; 3 days incubation): 5 (More than 10,000 colonies estimated (thus >100,000 cfu/mL))
- Grade code, Aeromonas sp, 14 Days (Aeromonas sp.; 14 days incubation): 4 (1001 to 10,000 colonies (thus 10,000 cfu/mL to 100,000 cfu/mL))
- Grade code, Aeromonas sp, 30 Days (Aeromonas sp.; 30 days incubation): 4 (1001 to 10,000 colonies (thus 10,000 cfu/mL to 100,000 cfu/mL))
- Grade code, P. aeruginosa, 3 Days (Pseudomonas aeruginosa; 3 days incubation): 4 (1001 to 10,000 colonies (thus 10,000 cfu/mL to 100,000 cfu/mL))
- Grade code, P. aeruginosa, 13 Days (Pseudomonas aeruginosa; 13 days incubation): 4 (1001 to 10,000 colonies (thus 10,000 cfu/mL to 100,000 cfu/mL))
- Grade code, P. aeruginosa, 30 Days (Pseudomonas aeruginosa; 30 days incubation): 5 (More than 10,000 colonies estimated (thus >100,000 cfu/mL))
- Grade code, S. mutans, 3 Day (Streptococcus mutans; 3 days incubation): 4 (1001 to 10,000 colonies (thus 10,000 cfu/mL to 100,000 cfu/mL))
- Grade code, S. mutans, 13 Day (Streptococcus mutans; 13 days incubation): 4 (1001 to 10,000 colonies (thus 10,000 cfu/mL to 100,000 cfu/mL))
- Grade code, S. mutans, 30 Days (Streptococcus mutans; 30 days incubation): 4 (1001 to 10,000 colonies (thus 10,000 cfu/mL to 100,000 cfu/mL))
- Grade code, S. aureus, 3 Day (Staphylococcus aureus; 3 days incubation): 5 (More than 10,000 colonies estimated (thus >100,000 cfu/mL))
- Grade code, S. aureus, 14 Day (Staphylococcus aureus; 14 days incubation): 4 (1001 to 10,000 colonies (thus 10,000 cfu/mL to 100,000 cfu/mL))
- Grade code, S. aureus, 30 Day (Staphylococcus aureus; 30 days incubation): 4 (1001 to 10,000 colonies (thus 10,000 cfu/mL to 100,000 cfu/mL))
- Grade code, E. coli, 3 Day (Escherichia coli; 3 days incubation): 5 (More than 10,000 colonies estimated (thus >100,000 cfu/mL))
- Grade code, E. coli, 14 Day (Escherichia coli; 14 days incubation): 5 (More than 10,000 colonies estimated (thus >100,000 cfu/mL))
- Grade code, E. coli, 30 Day (Escherichia coli; 30 days incubation): 5 (More than 10,000 colonies estimated (thus >100,000 cfu/mL))
- Grade code, P. vulgaris, 3 Days (Proteus vulgaris; 3 days incubation): 5 (More than 10,000 colonies estimated (thus >100,000 cfu/mL))
- Grade code, P. vulgaris, 13 Days (Proteus vulgaris; 13 days incubation): 4 (1001 to 10,000 colonies (thus 10,000 cfu/mL to 100,000 cfu/mL))
- Grade code, P. vulgaris, 30 Day (Proteus vulgaris; 30 days incubation): 4 (1001 to 10,000 colonies (thus 10,000 cfu/mL to 100,000 cfu/mL))
